From patent publication US8691850B2, “Substituted phenylaminothiazoles and use thereof” (Bayer Intellectual Property GmbH, priority 2004, dated 2014)

melting point: 192 to 194 °C
SMILES: N#Cc1c(N)nc(SCc2csc(Nc3cccc(Cl)c3)n2)c(C#N)c1-c1ccc(OCC(O)CO)cc1 (stereo not shown) [Example 1, 2-Amino-6-[({2-[(3-chlorophenyl)amino]-1,3-thiazol-4-yl}methyl)thio]-4-[4-(2,3-dihydroxypropoxy)phenyl]pyridine-3,5-dicarbonitrile]
